Laboratory results taken from the supplement of paper PMC13380429.

Assays:
[1] = system: A549-ACE2 infected with SARS-CoV-2; assay: morphology score (similarity to uninfected cells); higher = more like uninfected cells; settings: 24 h
A549-ACE2 [2] = assay: phospholipidosis EC50; higher = less potent phospholipidosis inducer
[3] = system: A549-ACE2 infected with SARS-CoV-2; assay: cell count relative to DMSO; higher = less toxic; settings: 24 h
HepG2 [4] = assay: relative viability EC50 (midpoint between 100% and the lowest measured viability); higher = less toxic; settings: 72 h
Calu-3 [5] = assay: as above; settings: 72 h
U2OS [6] = assay: cell viability relative to DMSO; higher = less toxic; settings: 72 h
HepG2 [7] = assay: as above; settings: 72 h
Caco-2 [8] = assay: as above; settings: 72 h
Calu-3 [9] = assay: as above; settings: 72 h
Vero E6 [10] = assay: as above; settings: 72 h
U2OS [11] = assay: drug sensitivity score (DSS) for viability; higher = more toxic; extreme values may be limits of the assay; settings: 72 h
HepG2 [12] = assay: as above; settings: 72 h
Caco-2 [13] = assay: as above; settings: 72 h
Calu-3 [14] = assay: as above; settings: 72 h
Vero E6 [15] = assay: as above; settings: 72 h
A549-ACE2 [16] = assay: drug-induced phospholipidosis relative to tamoxifen; higher = more phospholipidosis
[17] = system: A549-ACE2 infected with SARS-CoV-2; assay: SARS-CoV-2 infection rate relative to DMSO; higher = more infection; settings: 24 h
U2OS [18] = assay: relative viability EC50 (midpoint between 100% and the lowest measured viability); higher = less toxic; settings: 72 h
Caco-2 [19] = assay: as above; settings: 72 h
Vero E6 [20] = assay: as above; settings: 72 h

CN1CCC(CNc2ccc3ncc(-c4cccc(OC(F)(F)F)c4)n3n2)CC1 [SGI-1776]
Settings	SARS-CoV-2 infection rate [%]	cell count [%]	cell viability [%]	morphology score	phospholipidosis EC50 [nM]
A549-ACE2 [2], 24 h	–	–	–	–	5980
A549-ACE2 [2], 48 h	–	–	–	–	11800
A549-ACE2 [2], 72 h	–	–	–	–	7830
Caco-2 [8], 1 nM	–	–	102	–	–
Caco-2 [8], 10 nM	–	–	98.7	–	–
Caco-2 [8], 100 nM	–	–	101	–	–
Caco-2 [8], 1000 nM	–	–	88.2	–	–
Caco-2 [8], 10000 nM	–	–	58.6	–	–
Calu-3 [9], 1 nM	–	–	95.2	–	–
Calu-3 [9], 10 nM	–	–	88.7	–	–
Calu-3 [9], 100 nM	–	–	97.4	–	–
Calu-3 [9], 1000 nM	–	–	92.8	–	–
Calu-3 [9], 10000 nM	–	–	46.2	–	–
HepG2 [7], 1 nM	–	–	101	–	–
HepG2 [7], 10 nM	–	–	95.1	–	–
HepG2 [7], 100 nM	–	–	98.7	–	–
HepG2 [7], 1000 nM	–	–	99.9	–	–
HepG2 [7], 10000 nM	–	–	37.7	–	–
U2OS [6], 1 nM	–	–	102	–	–
U2OS [6], 10 nM	–	–	95.4	–	–
U2OS [6], 100 nM	–	–	100	–	–
U2OS [6], 1000 nM	–	–	92.1	–	–
U2OS [6], 10000 nM	–	–	52	–	–
Vero E6 [10], 1 nM	–	–	104	–	–
Vero E6 [10], 10 nM	–	–	104	–	–
Vero E6 [10], 100 nM	–	–	99.5	–	–
Vero E6 [10], 1000 nM	–	–	97	–	–
Vero E6 [10], 10000 nM	–	–	55	–	–
[1], 0.1 µM	–	–	–	0.31	–
[1], 0.3 µM	–	–	–	-0.09	–
[1], 1 µM	–	–	–	0.43	–
[1], 3 µM	–	–	–	0.76	–
[3], 0.1 µM	–	105	–	–	–
[3], 0.3 µM	–	95	–	–	–
[3], 1 µM	–	106	–	–	–
[3], 3 µM	–	113	–	–	–
[17], 0.1 µM	94	–	–	–	–
[17], 0.3 µM	106	–	–	–	–
[17], 1 µM	84	–	–	–	–
[17], 3 µM	48	–	–	–	–

Settings	drug sensitivity score	relative viability EC50 [nM]
Caco-2 [13]	3.9	–
Calu-3 [5]	–	2090
Calu-3 [14]	4.1	–
HepG2 [4]	–	3150
HepG2 [12]	3.4	–
U2OS [11]	3.8	–
Vero E6 [15]	2.8	–

drug-induced phospholipidosis [%], A549-ACE2 [16]
Settings	0.3 µM	0.833333 µM	3.33333 µM	6.66667 µM	10 µM	30 µM
24 h	8.28	2.67	25.6	59.2	81	100
48 h	2.75	0.46	18.4	53.2	85.9	–
72 h	3.7	-1.53	13.6	50.1	79.6	–

c1cncc(CN2CCC(n3ncc4c(N5CCOCC5)nc(-c5ccc6[nH]ccc6c5)nc43)CC2)c1 [WAY-600]
Settings	SARS-CoV-2 infection rate [%]	cell count [%]	cell viability [%]	morphology score	phospholipidosis EC50 [nM]
A549-ACE2 [2], 24 h	–	–	–	–	650
Caco-2 [8], 1 nM	–	–	96.4	–	–
Caco-2 [8], 10 nM	–	–	95.9	–	–
Caco-2 [8], 100 nM	–	–	102	–	–
Caco-2 [8], 1000 nM	–	–	70.3	–	–
Caco-2 [8], 10000 nM	–	–	24.7	–	–
Calu-3 [9], 1 nM	–	–	101	–	–
Calu-3 [9], 10 nM	–	–	94.9	–	–
Calu-3 [9], 100 nM	–	–	95	–	–
Calu-3 [9], 1000 nM	–	–	64.8	–	–
Calu-3 [9], 10000 nM	–	–	27.3	–	–
HepG2 [7], 1 nM	–	–	106	–	–
HepG2 [7], 10 nM	–	–	112	–	–
HepG2 [7], 100 nM	–	–	98.5	–	–
HepG2 [7], 1000 nM	–	–	72.2	–	–
HepG2 [7], 10000 nM	–	–	2.5	–	–
U2OS [6], 1 nM	–	–	102	–	–
U2OS [6], 10 nM	–	–	98.1	–	–
U2OS [6], 100 nM	–	–	97.8	–	–
U2OS [6], 1000 nM	–	–	89.5	–	–
U2OS [6], 10000 nM	–	–	23	–	–
Vero E6 [10], 1 nM	–	–	103	–	–
Vero E6 [10], 10 nM	–	–	104	–	–
Vero E6 [10], 100 nM	–	–	99.4	–	–
Vero E6 [10], 1000 nM	–	–	82.2	–	–
Vero E6 [10], 10000 nM	–	–	25.2	–	–
[1], 0.1 µM	–	–	–	0.01	–
[1], 0.3 µM	–	–	–	0.46	–
[1], 1 µM	–	–	–	0.61	–
[1], 3 µM	–	–	–	0.33	–
[3], 0.1 µM	–	102	–	–	–
[3], 0.3 µM	–	101	–	–	–
[3], 1 µM	–	108	–	–	–
[3], 3 µM	–	107	–	–	–
[17], 0.1 µM	103	–	–	–	–
[17], 0.3 µM	81	–	–	–	–
[17], 1 µM	56	–	–	–	–
[17], 3 µM	35	–	–	–	–

Settings	drug sensitivity score	relative viability EC50 [nM]
Caco-2 [13]	8.2	–
Caco-2 [19]	–	1190
Calu-3 [5]	–	1010
Calu-3 [14]	8.1	–
HepG2 [4]	–	1440
HepG2 [12]	9.5	–
U2OS [11]	6	–
U2OS [18]	–	2070
Vero E6 [15]	6.9	–
Vero E6 [20]	–	1590

drug-induced phospholipidosis [%], A549-ACE2 [16]
Settings	0.3 µM	0.833333 µM	3.33333 µM	6.66667 µM	10 µM	30 µM
24 h	18.3	55	79.8	55	39.9	10.3
48 h	16.7	40.1	86.2	–	–	–
72 h	17.1	29.6	–	–	–	–

C=C1CC[C@@H]2[C@](C)(CO)[C@H](O)CC[C@@]2(C)[C@@H]1C/C=C1/C(=O)OC[C@H]1O [andrographolide]
Settings	SARS-CoV-2 infection rate, [17] [%]	cell count, [3] [%]	cell viability, Caco-2 [8] [%]	cell viability, Calu-3 [9] [%]	cell viability, HepG2 [7] [%]	cell viability, U2OS [6] [%]	cell viability, Vero E6 [10] [%]	morphology score, [1]
1 nM	–	–	99.1	90.5	102	103	100	–
10 nM	–	–	104	94.3	99.2	95.7	104	–
0.1 µM	103	101	–	–	–	–	–	-0.02
100 nM	–	–	101	105	109	102	98	–
0.3 µM	110	101	–	–	–	–	–	-0.22
1 µM	111	96	–	–	–	–	–	-0.15
1000 nM	–	–	94.3	106	102	96.2	112	–
3 µM	102	102	–	–	–	–	–	-0.17
10000 nM	–	–	66	112	66.5	22.9	73.8	–

Settings	drug sensitivity score	relative viability EC50 [nM]
Caco-2 [13]	2.5	–
Calu-3 [5]	–	> 10000
Calu-3 [14]	0	–
HepG2 [12]	1.4	–
U2OS [11]	4.8	–
U2OS [18]	–	2780
Vero E6 [15]	0.7	–

drug-induced phospholipidosis [%], A549-ACE2 [16]
Settings	0.3 µM	0.833333 µM	3.33333 µM	6.66667 µM	10 µM	30 µM
24 h	4.15	-1.47	2.19	13.3	16	25
48 h	3.38	2.04	3.48	15.8	19.9	–
72 h	0.729	-0.638	-0.912	5.37	8.38	–
